Measured values taken from patent publication US20040229867A1, “Treatment of gastrointestinal dysfunction and related stress with an enantiomerically-pure (R) 2,3-benzodiazepine” (priority 2003, published 2004).

Experiments:
[1] = test system: abdominal contractions induced by colonic distension; test: Visceral hypersensitivity, pain and bloating test (colonic distension after 1% acetic acid); assay type: in vivo, rat
[2] = test system: gastrointestinal propulsive motility; test: Charcoal meal test (basal gastrointestinal propulsive motility); assay type: in vivo, rat; settings: for % Inhibition: numbers in parentheses indicate % increase; for effect on charcoal meal transit: R-tofisopam at the highest dose tested, loperamide positive control
[3] = test system: stress-induced ulcer formation; test: Water immersion stress-induced ulcers test; assay type: in vivo, rat; settings: for Score for the Presence of Ulcers Mean ± SEM: score 0-4; for Ulceration Index: ulcer score x percentage of stomachs showing ulcers; for effect on ulcer score: text summary of Table 4
[4] = test system: colonic propulsive motility; test: Glass bead test (stimulated colonic propulsion); assay type: in vivo, mouse; settings: for Expulsion Time Mean ± SEM: 30 minutes prior to bead insertion, cutoff 30 minutes, in min
Experimental: In the test, usually performed in mice, a 3-mm glass bead is inserted through the anus into the distal colon (using a glass rod) to a depth of 2 cm. The time to expel the glass bead is then measured; normally, the glass bead is expelled in approximately 10 minutes. This model is especially sensitive to compounds with inhibitory effects on stretch-stimulated propulsive motor activity; as such, it is often used as an animal model for IBS. A test compound that inhibits stretch-stimulated-colonic propulsive motility, may be used to treat gastrointestinal dysfunction, including IBS. […] The glass bead test is commonly used to evaluate the ability of compounds to affect stimulated colonic propulsion. In the test, usually performed in mice, a 3-mm glass bead is inserted through the anus into the distal colon (using a glass rod) to a depth of 2 cm. The time to expel the glass bead is then measured; normally, the glass bead is expelled in approximately 10 minutes. This model is especially sensitive to compounds with inhibitory effects on stretch-stimulated propulsive motor activity; as such, it is often used as an animal model for IBS. In each study, RS— and R-tofisopam were evaluated for their ability to increase or decrease the time for expulsion of the glass bead.

[5] = test system: hydrochloric acid-induced, alkali-induced and cauterization-induced ulcers; settings: in vivo; cited from earlier work
stress-induced ulcers = settings: pre-treatment 30 or 100 mg/kg PO; cited from earlier work
gastric function = settings: cited from earlier work
[6] = test system: dextran sulfate sodium-induced colitis; test: Dextran sulfate sodium-induced colitis; assay type: in vivo; settings: DSS 5% solution in tap water
From the text: Another gastrointestinal disorder model tested was the dextran sulfate sodium-induced colitis. In this model of colitis, an acute inflammation of the colon is produced by administration of dextran sulfate sodium (DSS) as a 5% solution in tap water. This colitis is characterized by histological events and an influx of neutrophils, macrophages and mediators of inflammation similar to those observed with human inflammatory bowel diseases.

[7] = test system: dextran sulfate sodium-induced colitis; settings: in vivo; cited from earlier work
[8] = first experiment, 64 mg/kg IP, 30 minutes prior to charcoal meal
[9] = 8 mg/kg IP 30 minutes prior to water immersion

Row | SMILES | % Intestine Traversed Mean ± SEM ([2]; first experiment, 16 mg/kg IP) | % Intestine Traversed Mean ± SEM ([2]; first experiment, 32 mg/kg IP) | % Intestine Traversed Mean ± SEM [2, 8] | % Inhibition ([2]; first experiment, 64 mg/kg IP) | % Intestine Traversed Mean ± SEM ([2]; second experiment, 4 mg/kg IP) | % Intestine Traversed Mean ± SEM ([2]; second experiment, 8 mg/kg IP) | % Intestine Traversed Mean ± SEM ([2]; second experiment, 16 mg/kg IP) | % Inhibition ([2]; second experiment, 16 mg/kg IP) | % Intestine Traversed Mean ± SEM ([2]; second experiment, 32 mg/kg IP) | % Inhibition ([2]; second experiment, 32 mg/kg IP) | % of Stomachs Showing Ulcers ([3]; 8 mg/kg IP) | Score for the Presence of Ulcers Mean ± SEM [3, 9] | Ulceration Index ([3]; 8 mg/kg IP) | % of Stomachs Showing Ulcers ([3]; 16 mg/kg IP) | Score for the Presence of Ulcers Mean ± SEM ([3]; 16 mg/kg IP) | Ulceration Index ([3]; 16 mg/kg IP) | % of Stomachs Showing Ulcers ([3]; 32 mg/kg IP) | Score for the Presence of Ulcers Mean ± SEM ([3]; 32 mg/kg IP) | Ulceration Index ([3]; 32 mg/kg IP) | % of Stomachs Showing Ulcers ([3]; 64 mg/kg IP) | also measured
1 | CCC1C(C)=NN=C(c2ccc(OC)c(OC)c2)c2cc(OC)c(OC)cc21 (racemic) [RS-tofisopam, tofisopam] | 73.5 ± 3.5% | 77.7 ± 2.3% | 81.7 ± 2.8% | 0% | 77.9 ± 2.9% | 78.3 ± 1.7% | 70.4 ± 3.7% | 5.8% | 65.6 ± 4.5% | 12.2% | 100% | 3.4 ± 0.3 | 338 | 100% | 3.4 ± 0.3 | 338 | 100% | 3.5 ± 0.3 | 350 | 100% | effect on number of abdominal contractions versus vehicle control ([1]; 32 mg/kg): did not significantly modify; % Inhibition ([2]; first experiment, 16 mg/kg IP): 9.8%; % Inhibition ([2]; first experiment, 32 mg/kg IP): 4.7%; Score for the Presence of Ulcers Mean ± SEM ([3]; 64 mg/kg IP): 3.1 ± 0.3; Ulceration Index ([3]; 64 mg/kg IP): 313; % of Stomachs Showing Ulcers ([3]; 128 mg/kg IP): 75%; Score for the Presence of Ulcers Mean ± SEM ([3]; 128 mg/kg IP): 2.4 ± 0.4; Ulceration Index ([3]; 128 mg/kg IP): 178; % Inhibition ([4]; 16 mg/kg IP): 46%; Expulsion Time Mean ± SEM ([4]; 16 mg/kg IP): 19.0 ± 2.8; % Inhibition ([4]; 32 mg/kg IP): 71%; Expulsion Time Mean ± SEM ([4]; 32 mg/kg IP): 23.7 ± 2.6; % Inhibition ([4]; 64 mg/kg IP): 82%; Expulsion Time Mean ± SEM ([4]; 64 mg/kg IP): 26.4 ± 2.4; effect on cauterization-induced ulcers [5]: promoted the healing; effect on hydrochloric acid-induced and alkali-induced ulcers [5]: suppressed the development; reduction of number of stress-induced ulcers and total area of ulceration (stress-induced ulcers): ≤ 90%; effect on basal gastric acid output and mucosal blood flow (gastric function; intracerebroventricular injection 50 or 100 μg): increased both basal gastric acid output and mucosal blood flow; effect on basal gastric acid output (gastric function; intravenous injection 10 mg/kg): did not change basal gastric acid output
2 | CN1C(=O)CC(=O)N(c2ccccc2)c2cc(Cl)ccc21 [Clobazam, clobazam] |  |  |  |  |  |  |  |  |  |  |  |  |  | 100% | 3.6 ± 0.2 | 363 | 75% | 2.6 ± 0.5 | 197 |  | effect on ulcer score [3]: reduced the ulcer score slightly, but this effect was not statistically significant
3 | CN(C)C(=O)C(CCN1CCC(O)(c2ccc(Cl)cc2)CC1)(c1ccccc1)c1ccccc1 [Loperamide, loperamide] |  |  |  |  |  |  | 28.1 ± 2.2 % | 62.5% |  |  |  |  |  |  |  |  |  |  |  |  | effect on charcoal meal transit ([2]; second experiment): considerable slowing
4 | CC[C@H]1C(C)=NN=C(c2ccc(OC)c(OC)c2)c2cc(OC)c(OC)cc21 [R-tofisopam, (R)-1-(3,4-dimethoxyphenyl)-4-methyl-5-ethyl-7,8-dimethoxy-5H-2,3-benzodiazepine] | 82.8 ± 3.1% | 85.4 ± 2.9% | 72.9 ± 2.9 % | 10.6% | 71.72 ± 3.2% | 75.2 ± 4.1% | 65.7 ± 3.0% | 12.1% | 59.5 ± 3.2 % | 20.3% | 100% | 3.6 ± 0.3 | 363 | 88% | 3.1 ± 0.5 | 273 | 88% | 3.1 ± 0.5 | 273 | 29% | effect in DSS colitis model compared with racemic tofisopam [6]: substantially greater effect; decrease of abdominal cramps versus vehicle control ([1]; 32 mg/kg p.o.): 49%; number of abdominal cramps ([1]; 32 mg/kg p.o., vehicle control 18.8 cramps): 9.5±1.7 cramps; % Inhibition ([2]; second experiment, 4 mg/kg IP): 4.1%; effect on charcoal meal transit ([2]; second experiment): only a slight inhibition; Score for the Presence of Ulcers Mean ± SEM ([3]; 64 mg/kg IP): 1.7 ± 0.6; Ulceration Index ([3]; 64 mg/kg IP): 49; % of Stomachs Showing Ulcers ([3]; 128 mg/kg IP): 38%; Score for the Presence of Ulcers Mean ± SEM ([3]; 128 mg/kg IP): 1.4 ± 0.2; Ulceration Index ([3]; 128 mg/kg IP): 52; effect on ulcer score [3]: significantly reduced the ulcer score; % Inhibition ([4]; 16 mg/kg IP): 100%; Expulsion Time Mean ± SEM ([4]; 16 mg/kg IP): 30.0 ± 0.0; % Inhibition ([4]; 32 mg/kg IP): 99%; Expulsion Time Mean ± SEM ([4]; 32 mg/kg IP): 29.7 ± 0.3; % Inhibition ([4]; 64 mg/kg IP): 90%; Expulsion Time Mean ± SEM ([4]; 64 mg/kg IP): 28.0 ± 1.1; effect on colonic expulsion ([4]; text summary of Table 1, 16-64 mg/kg IP): significantly prolonged (i.e., slowed) colonic expulsion
5 | O=C(O)c1cc(/N=N/c2ccc(S(=O)(=O)Nc3ccccn3)cc2)ccc1O [sulfasalazine] |  |  |  |  |  |  |  |  |  |  |  |  |  |  |  |  |  |  |  |  | activity in DSS colitis model [7]: have been shown to have activity in this model
